In patent US6645918B1, “N-([1,2,4]triazoloazinyl)thiophenesulfonamide compounds and their use as herbicides” (Dow AgroSciences LLC, priority 2000, dated 2003):

Legend:
Format in all cases: in vivo
[1] = tested on: cocklebur (Xanthium strumarium); assay: Preemergence herbicidal activity, cocklebur; settings: soil spray, visual after 3 weeks, 0 no injury, 100 complete kill or no germination
Outline: (§1)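 Visual rating 3 weeks after treatment, 0-100% injury versus untreated pots, where 100 means complete kill or no germination. Soil of seeded pots was sprayed preemergence with aqueous Tween 155 dilutions of acetone/DMSO stocks, up to 4.48 kg/ha. Plants were grown in a greenhouse at about 23-29 °C day/22-28 °C night with ~15 h light.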

viola (Viola tricolor) = assay: Postemergence herbicidal activity, viola; settings: foliar spray, visual after 2 weeks, 0 no injury, 100 complete kill
Outline: (§2)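 Injury rated visually at 2 weeks, 0 (none) to 100% (complete kill), relative to carrier-sprayed controls. Foliar spray applied to 7–21-day-old seedlings at first or second true leaf, with rates in ppm (1 ppm ≈ 1 g/ha) in an aqueous acetone/DMSO/crop oil/surfactant mix.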

[2] = tested on: wild poinsettia (Euphorbia heterophylla); assay: Preemergence herbicidal activity, wild poinsettia; settings: soil spray, visual after 3 weeks, 0 no injury, 100 complete kill or no germination
Outline: as §1

[3] = tested on: pigweed (Amaranthus retroflexus); assay: Preemergence herbicidal activity, pigweed; settings: soil spray, visual after 3 weeks, 0 no injury, 100 complete kill or no germination
Outline: as §1

[4] = tested on: morningglory (Ipomoea hederacea); assay: Preemergence herbicidal activity, morningglory; settings: soil spray, visual after 3 weeks, 0 no injury, 100 complete kill or no germination
Outline: as §1

[5] = tested on: giant foxtail (Setaria faberi); assay: Postemergence herbicidal activity, giant foxtail; settings: foliar spray, visual after 2 weeks, 0 no injury, 100 complete kill
Outline: as §2

[6] = tested on: velvetleaf (Abutilion theophrasti); assay: Preemergence herbicidal activity, velvetleaf; settings: soil spray, visual after 3 weeks, 0 no injury, 100 complete kill or no germination
Outline: as §1

[7] = tested on: wild buckwheat (Polygonum convolvulus); assay: Postemergence herbicidal activity, wild buckwheat; settings: foliar spray, visual after 2 weeks, 0 no injury, 100 complete kill
Outline: as §2

[8] = tested on: morningglory (Ipomoea hederacea); assay: Postemergence herbicidal activity, morningglory; settings: foliar spray, visual after 2 weeks, 0 no injury, 100 complete kill
Outline: as §2

[9] = tested on: barnyardgrass (Echinochloa crus-galli); assay: Preemergence herbicidal activity, barnyardgrass; settings: soil spray, visual after 3 weeks, 0 no injury, 100 complete kill or no germination
Outline: as §1

[10] = tested on: lambsquarters (Chenopodium album); assay: Preemergence herbicidal activity, lambsquarters; settings: soil spray, visual after 3 weeks, 0 no injury, 100 complete kill or no germination
Outline: as §1

[11] = tested on: blackgrass (Alopecurus myosuroides); assay: Postemergence herbicidal activity, blackgrass; settings: foliar spray, visual after 2 weeks, 0 no injury, 100 complete kill
Outline: as §2

wild oats (Avena fatua) [12] = assay: Preemergence herbicidal activity, wild oats; settings: soil spray, visual after 3 weeks, 0 no injury, 100 complete kill or no germination
Outline: as §1

[13] = tested on: blackgrass (Alopecurus myosuroides); assay: Preemergence herbicidal activity, blackgrass; settings: soil spray, visual after 3 weeks, 0 no injury, 100 complete kill or no germination
Outline: as §1

[14] = tested on: giant foxtail (Setaria faberi); assay: Preemergence herbicidal activity, giant foxtail; settings: soil spray, visual after 3 weeks, 0 no injury, 100 complete kill or no germination
Outline: as §1

[15] = tested on: cocklebur (Xanthium strumarium); assay: Postemergence herbicidal activity, cocklebur; settings: foliar spray, visual after 2 weeks, 0 no injury, 100 complete kill
Outline: as §2

[16] = tested on: lambsquarters (Chenopodium album); assay: Postemergence herbicidal activity, lambsquarters; settings: foliar spray, visual after 2 weeks, 0 no injury, 100 complete kill
Outline: as §2

[17] = tested on: Rox orange sorghum (Sorghum bicolor); assay: Preemergence herbicidal activity, Rox orange sorghum; settings: soil spray, visual after 3 weeks, 0 no injury, 100 complete kill or no germination
Outline: as §1

[18] = tested on: crabgrass (Digitaria sanguinalis); assay: Preemergence herbicidal activity, crabgrass; settings: soil spray, visual after 3 weeks, 0 no injury, 100 complete kill or no germination
Outline: as §1

[19] = tested on: Rox orange sorghum (Sorghum bicolor); assay: Postemergence herbicidal activity, Rox orange sorghum; settings: foliar spray, visual after 2 weeks, 0 no injury, 100 complete kill
Outline: as §2

[20] = tested on: chickweed (Stellaria media); assay: Postemergence herbicidal activity, chickweed; settings: foliar spray, visual after 2 weeks, 0 no injury, 100 complete kill
Outline: as §2

[21] = tested on: velvetleaf (Abutilion theophrasti); assay: Postemergence herbicidal activity, velvetleaf; settings: foliar spray, visual after 2 weeks, 0 no injury, 100 complete kill
Outline: as §2

[22] = tested on: pigweed (Amaranthus retroflexus); assay: Postemergence herbicidal activity, pigweed; settings: foliar spray, visual after 2 weeks, 0 no injury, 100 complete kill
Outline: as §2

wild oats (Avena fatua) [23] = assay: Postemergence herbicidal activity, wild oats; settings: foliar spray, visual after 2 weeks, 0 no injury, 100 complete kill
Outline: as §2

COc1cscc1S(=O)(=O)Nc1nc2c(OC)ccc(OC)n2n1 [Compound 16]
XANST preemergence injury score 0-100 ([1]; 35 g/Ha): 40% | VIOTR postemergence injury score 0-100 (viola (Viola tricolor); 15.6 ppm): 70% | EPHHL preemergence injury score 0-100 ([2]; 35 g/Ha): 0% | AMARE preemergence injury score 0-100 ([3]; 35 g/Ha): 60% | IPOHE preemergence injury score 0-100 ([4]; 35 g/Ha): 0% | SETFA postemergence injury score 0-100 ([5]; 15.6 ppm): 90% | ABUTH preemergence injury score 0-100 ([6]; 35 g/Ha): 40% | POLCO postemergence injury score 0-100 ([7]; 15.6 ppm): 90% | IPOHE postemergence injury score 0-100 ([8]; 15.6 ppm): 60% | ECHCG preemergence injury score 0-100 ([9]; 35 g/Ha): 0% | CHEAL preemergence injury score 0-100 ([10]; 35 g/Ha): 80% | ALOMY postemergence injury score 0-100 ([11]; 15.6 ppm): 85% | AVEFA preemergence injury score 0-100 (wild oats (Avena fatua) [12]; 35 g/Ha): 0% | ALOMY preemergence injury score 0-100 ([13]; 35 g/Ha): 100% | SETFA preemergence injury score 0-100 ([14]; 35 g/Ha): 0% | XANST postemergence injury score 0-100 ([15]; 15.6 ppm): 95% | CHEAL postemergence injury score 0-100 ([16]; 15.6 ppm): 95% | SORBI preemergence injury score 0-100 ([17]; 35 g/Ha): 0% | DIGSA preemergence injury score 0-100 ([18]; 35 g/Ha): 30% | SORBI postemergence injury score 0-100 ([19]; 15.6 ppm): 90% | STEME postemergence injury score 0-100 ([20]; 15.6 ppm): 90% | ABUTH postemergence injury score 0-100 ([21]; 15.6 ppm): 80% | AMARE postemergence injury score 0-100 ([22]; 15.6 ppm): 95% | AVEFA postemergence injury score 0-100 (wild oats (Avena fatua) [23]; 15.6 ppm): 80%

COc1cc(OC)n2nc(NS(=O)(=O)c3c(OC)csc3C(F)(F)F)nc2n1 [Compound 25]
XANST preemergence injury score 0-100 ([1]; 17.5 g/Ha): 50% | VIOTR postemergence injury score 0-100 (viola (Viola tricolor); 31 ppm): 70% | EPHHL preemergence injury score 0-100 ([2]; 17.5 g/Ha): 80% | AMARE preemergence injury score 0-100 ([3]; 17.5 g/Ha): 95% | IPOHE preemergence injury score 0-100 ([4]; 17.5 g/Ha): 60% | SETFA postemergence injury score 0-100 ([5]; 31 ppm): 80% | ABUTH preemergence injury score 0-100 ([6]; 17.5 g/Ha): 80% | POLCO postemergence injury score 0-100 ([7]; 31 ppm): 70% | IPOHE postemergence injury score 0-100 ([8]; 31 ppm): 70% | ECHCG preemergence injury score 0-100 ([9]; 17.5 g/Ha): 85% | CHEAL preemergence injury score 0-100 ([10]; 17.5 g/Ha): 90% | ALOMY postemergence injury score 0-100 ([11]; 31 ppm): 80% | AVEFA preemergence injury score 0-100 (wild oats (Avena fatua) [12]; 17.5 g/Ha): 80% | ALOMY preemergence injury score 0-100 ([13]; 17.5 g/Ha): 95% | SETFA preemergence injury score 0-100 ([14]; 17.5 g/Ha): 85% | XANST postemergence injury score 0-100 ([15]; 31 ppm): 90% | CHEAL postemergence injury score 0-100 ([16]; 31 ppm): 90% | SORBI preemergence injury score 0-100 ([17]; 17.5 g/Ha): 90% | DIGSA preemergence injury score 0-100 ([18]; 17.5 g/Ha): 85% | SORBI postemergence injury score 0-100 ([19]; 31 ppm): 95% | STEME postemergence injury score 0-100 ([20]; 31 ppm): 60% | ABUTH postemergence injury score 0-100 ([21]; 31 ppm): 70% | AMARE postemergence injury score 0-100 ([22]; 31 ppm): 90% | AVEFA postemergence injury score 0-100 (wild oats (Avena fatua) [23]; 31 ppm): 80%

COc1cc(OC)n2nc(NS(=O)(=O)c3c(OC)csc3Cl)nc2n1 [Compound 19]
XANST preemergence injury score 0-100 ([1]; 8.8 g/Ha): 50% | VIOTR postemergence injury score 0-100 (viola (Viola tricolor); 15.6 ppm): 100% | EPHHL preemergence injury score 0-100 ([2]; 8.8 g/Ha): 90% | AMARE preemergence injury score 0-100 ([3]; 8.8 g/Ha): 75% | IPOHE preemergence injury score 0-100 ([4]; 8.8 g/Ha): 90% | SETFA postemergence injury score 0-100 ([5]; 15.6 ppm): 100% | ABUTH preemergence injury score 0-100 ([6]; 8.8 g/Ha): 95% | POLCO postemergence injury score 0-100 ([7]; 15.6 ppm): 95% | IPOHE postemergence injury score 0-100 ([8]; 15.6 ppm): 80% | ECHCG preemergence injury score 0-100 ([9]; 8.8 g/Ha): 95% | CHEAL preemergence injury score 0-100 ([10]; 8.8 g/Ha): 90% | ALOMY postemergence injury score 0-100 ([11]; 15.6 ppm): 70% | AVEFA preemergence injury score 0-100 (wild oats (Avena fatua) [12]; 8.8 g/Ha): 100% | ALOMY preemergence injury score 0-100 ([13]; 8.8 g/Ha): 95% | SETFA preemergence injury score 0-100 ([14]; 8.8 g/Ha): 100% | XANST postemergence injury score 0-100 ([15]; 15.6 ppm): 95% | CHEAL postemergence injury score 0-100 ([16]; 15.6 ppm): 100% | SORBI preemergence injury score 0-100 ([17]; 8.8 g/Ha): 95% | DIGSA preemergence injury score 0-100 ([18]; 8.8 g/Ha): 100% | SORBI postemergence injury score 0-100 ([19]; 15.6 ppm): 100% | STEME postemergence injury score 0-100 ([20]; 15.6 ppm): 95% | ABUTH postemergence injury score 0-100 ([21]; 15.6 ppm): 80% | AMARE postemergence injury score 0-100 ([22]; 15.6 ppm): 100% | AVEFA postemergence injury score 0-100 (wild oats (Avena fatua) [23]; 15.6 ppm): 100%
